From US6482850B2, “Hydrolysis-promoting hydrophobic taxane derivatives” (priority 1995, dated 2002)

Experiments:
[1] = tested on: OVCAR-3 human ovarian cancer; assay: i.p. OVCAR-3 tumor, i.v. treatment, survival (FIG. 6); type: in vivo, mice
Procedure: Mice were observed daily for mortality and % ILS was calculated as described above.

[2] = tested on: OVCAR-3 human ovarian cancer; assay: s.c. OVCAR-3 tumor, i.v. treatment, tumor volume (FIG. 7); type: in vivo, mice
Procedure: OVCAR-3 human ovarian cancer.
The tumor volume (mm^3) from tumor measurement was calculated: (Length * (Width/2)^2 * π). Mice were sacrificed when the average tumor volume of the group reached 1500 mm^3.

[3] = tested on: HT-29 human colon carcinoma cells; assay: In vitro sensitivity, sulforhodamine B cytotoxicity assay, HT-29 (Table 2); type: cell-based; conditions: 72-hour incubation; averaged from two separate experiments
[4] = tested on: OVCAR-3 human ovarian cancer; assay: i.p. OVCAR-3 tumor, i.p. treatment, survival; conditions: for % ILS / LTS/n (mice that survived to 300 days) / MST Days ± SEM (n) / Median survival time: treated days 20, 22, 24, 26 and 28 i.p.; for MST Days ± SEM (n) / Median survival time: long-term survivors not included
Procedure: C.B-17 SCID female mice were injected i.p. with 5×10^6 OVCAR-3 human ovarian cancer cells (day 0). […] Note that long-term survivors (mice that survived through day 300 after cell inoculation) were not included in mean, median, or % ILS calculations.

OVCAR-3 cancer cells = conditions: read-out: GI50 ± S.D. OVCAR-3; 72 hr, SRB assay
Procedure: Briefly, 96-well microtiter plates were inoculated (100 μL/well) with 5×10^3 (A549) or 7.5×10^3 (OVCAR-3) cells/well, in RPMI-1640 supplemented with 10% FBS (growth media). The plates were incubated for 24 hr at 37° C., 100% humidity and 5% CO2. At 24 hours, growth media (100 μL) was added to designated “time zero” plates. Similarly, serial dilutions of drug or vehicle (in media) were added (100 μL aliquots) to the test and vehicle control wells at twice the predetermined highest concentration. There were triplicate wells on each plate and duplicate plates (total 6 wells) for each drug concentration. The test plates were incubated as above for 72 hr. Cells (including time zero plates) were then fixed with 50 μL of 50% trichloroacetic acid (TCA) (w:v) for adherent cells or 80% TCA for suspended cells, and plates refrigerated at 4° C. for 1 hr. […] The bound stain was solubilized with 100 μL of 10 mM Tris buffer and the optical density was read spectrophotometrically at 490 nm (Microplate Reader Model 3550-UV, Bio-Rad, Hercules, Calif.). Percent growth was calculated as follows: (T-T0) / (C-T0)×100; where (T)=mean optical density of treated wells at a given drug concentration, (T0)=mean optical density of time zero wells, and (C)=mean optical density of control wells.

[5] = tested on: MCF-7/ADR (adriamycin-resistant); assay: In vitro sensitivity, sulforhodamine B cytotoxicity assay, MCF-7/ADR (Table 2); type: cell-based, human; conditions: 72-hour incubation; averaged from two separate experiments
[6] = tested on: A-549 human lung carcinoma; assay: In vitro sensitivity, sulforhodamine B cytotoxicity assay, A-549 (Table 2); type: cell-based; conditions: 72-hour incubation; averaged from two separate experiments
Procedure: Briefly, 96-well microtiter plates were inoculated (100 μL/well) with 5×10^3 (A549) or 7.5×10^3 (OVCAR-3) cells/well, in RPMI-1640 supplemented with 10% FBS (growth media). The plates were incubated for 24 hr at 37° C., 100% humidity and 5% CO2. At 24 hours, growth media (100 μL) was added to designated “time zero” plates. Similarly, serial dilutions of drug or vehicle (in media) were added (100 μL aliquots) to the test and vehicle control wells at twice the predetermined highest concentration. […] Cells (including time zero plates) were then fixed with 50 μL of 50% trichloroacetic acid (TCA) (w:v) for adherent cells or 80% TCA for suspended cells, and plates refrigerated at 4° C. for 1 hr. […] The plates were then air-dried for 24 hr.

CDF1 mice [7] = assay: In vivo toxicity, i.v. x 5, non-tumor bearing mice; conditions: 30 days observation
Procedure: (§1) A separate group (n=5) was injected with concentrations of Cremophor® EL and ethanol (in PBS) equivalent to the highest concentration of the test treatment. Mortality was recorded daily and body weights taken at least twice weekly for an observation period of 30 days.

[8] = tested on: MCF-7 human breast carcinoma; assay: In vitro sensitivity, sulforhodamine B cytotoxicity assay, MCF-7 (Table 2); type: cell-based; conditions: 72-hour incubation; averaged from two separate experiments
CDF1 female mice = assay: Acute toxicity of liposomal paclitaxel or paclitaxel derivative given intraperitoneally; conditions: i.p.; for number of mice that died within the first 14 days post-injection/total: liposomes
Procedure: Moreover, liposomes containing either paclitaxel or a 2′-(2-bromo) hydrophobic paclitaxel derivative (containing either a six-carbon (C-6), C-8, C-12, C-14 or C-16 acyl chain at the 2′ position) were administered, intraperitoneally in 5 doses, to SCID (severe combined inimunodeficiency) mice bearing a human ovarian cancer (OvCar 3), at a dose of 12.5 mg paclitaxel per kg or a dose of 50 mg paclitaxel derivative per kg.
CDF1 female mice, 5 or 10 mice per group, were intraperitoneally administered either paclitaxel-, 2′-C6-paclitaxel derivative-, or 2′-C16-paclitaxel derivative-containing liposomes, in a single dose, or 5 doses, of either 12.5, 25, 50, 100, 200, 300. 400 or 500 mg of paclitaxel or paclitaxel derivative per kg of mouse body weight.

A549 human lung cancer = assay: s.c. A549 tumor, i.v. treatment, tumor volume (FIG. 8); type: in vivo, mice
Excerpt: Mice were sacrificed when the average tumor volume of the group reached 1500 mm^3.

A549 human NSCLC = assay: i.p. A549 tumor, i.p. treatment, survival; conditions: for % ILS / LTS/n / MST Days + SEM / Median survival time: treatment days 1, 3, 5, 7 and 9 i.p.
Procedure: Note that long-term survivors (mice that survived through day 300 after cell inoculation) were not included in mean, median, or % ILS calculations.
SCID mice (6/group) were injected with 5×10^6 A549 human NSCLC cells i.p. (day 0).

CDF1 mice [9] = assay: In vivo toxicity, i.p. x 5, non-tumor bearing mice; conditions: 30 days observation
Procedure: as §1

Procedure for A549 cancer cells: Briefly, 96-well microtiter plates were inoculated (100 μL/well) with 5×10^3 (A549) or 7.5×10^3 (OVCAR-3) cells/well, in RPMI-1640 supplemented with 10% FBS (growth media). The plates were incubated for 24 hr at 37° C., 100% humidity and 5% CO2. At 24 hours, growth media (100 μL) was added to designated “time zero” plates. Similarly, serial dilutions of drug or vehicle (in media) were added (100 μL aliquots) to the test and vehicle control wells at twice the predetermined highest concentration. There were triplicate wells on each plate and duplicate plates (total 6 wells) for each drug concentration. The test plates were incubated as above for 72 hr. Cells (including time zero plates) were then fixed with 50 μL of 50% trichloroacetic acid (TCA) (w:v) for adherent cells or 80% TCA for suspended cells, and plates refrigerated at 4° C. for 1 hr. The supernatant was discarded (suspended cell plates were first centrifuged) and the wells rinsed six times with tap water and air-dried. One hundred microliters of 0.4% SRB in 1% acetic acid were added to each well and the plates were incubated under ambient (RT) conditions for 10 min. Unbound stain was removed by rinsing the wells three times with 1% acetic acid. The plates were then air-dried for 24 hr. The bound stain was solubilized with 100 μL of 10 mM Tris buffer and the optical density was read spectrophotometrically at 490 nm (Microplate Reader Model 3550-UV, Bio-Rad, Hercules, Calif.). Percent growth was calculated as follows: (T-T0) / (C-T0)×100; where (T)=mean optical density of treated wells at a given drug concentration, (T0)=mean optical density of time zero wells, and (C)=mean optical density of control wells.

CCCCCCCCCCCCCC[C@@H](Br)C(=O)O[C@@H](C(=O)O[C@H]1C[C@@]2(O)[C@@H](OC(=O)c3ccccc3)[C@@H]3[C@]4(OC(C)=O)CO[C@@H]4C[C@H](O)[C@@]3(C)C(=O)[C@H](OC(C)=O)C(=C1C)C2(C)C)[C@@H](NC(=O)c1ccccc1)c1ccccc1 [BrC16HT, 2′-(R)-[2-bromohexadecanoyl] paclitaxel]
medium survival times ([1]; 12.5 mg/kg i.v. on days 20, 22, 24, 26 & 28): 182 days
survival time compared to controls ([1]; 25 mg/kg i.v. on days 20, 22, 24, 26 & 28): significantly prolonged compared to controls (p<0.0001)
survival time vs. control ([1]; 12.5 or 25 mg/kg i.v. on days 1, 3, 5, 7, 9, 42, 44, 46, 48 & 50 (FIG. 6a)): significantly (p<0.05 vs. control) increased the survival time
efficacy compared with Taxol® ([1]; 12.5 or 25 mg/kg i.v., FIG. 6a schedule): more effective than Taxol®
survival time vs. control ([1]; i.v. on days 20, 22, 24, 26 & 28, BrC16HT 12.5 or 25 mg/kg, Taxol® 12.5 mg/kg (FIG. 6b)): significantly (p<0.05 vs. control) increased the survival time
delaying tumor growth ([2]; 12.5 mg/kg i.v. on days 1, 3, 5, 7 & 9): approximately 79 days
tumor growth suppression ([2]; 25 mg/kg i.v. on days 1, 3, 5, 7 & 9): suppressed tumor growth completely up to 120 days post-implantation
tumor growth vs. control ([2]; i.v. on days 1, 3, 5, 7 & 9, BrC16HT 12.5-25 mg/kg, Taxol® 25 mg/kg): significantly (p<0.05 vs. control) inhibited the tumor growth
GI50 relative to Taxol® (A549 cancer cells; in both cell lines (A549, OVCAR-3)): approximately ten times higher than Taxol®
GI50 (A549 cancer cells; read-out: GI50 ± S.D. A549, 72 hr, SRB assay): 29 ± 5.9 nM
GI50 [3]: 59.5 nM
survival compared to Taxol® 25 mg/kg ([4]; BrC16HT at both 25 and 50 mg/kg, delayed i.p. schedule): significantly increased survival
long-term survivors (LTS), in words ([4]; delayed i.p. schedule (Table 9b)): clear dose-response effect with regard to LTS
survival of tumor-bearing mice vs. control ([4]; early (days 1, 3, 5, 7 & 9) and delayed (days 20, 22, 24, 26 & 28) i.p. treatment schedules): significantly prolonged (p<0.05 vs. control) the survival
survival time compared with Taxol® at equivalent doses ([4]; early and delayed i.p. schedules): more effective than Taxol® in extending survival time
% ILS ([4]; 25 mg/kg): 115%
LTS/n (mice that survived to 300 days) ([4]; 25 mg/kg): 4/10
MST Days ± SEM (n) ([4]; 25 mg/kg): 220 ± 13 (6) Days
Median survival time ([4]; 25 mg/kg): 221 days
% ILS ([4]; 50 mg/kg): 80%
LTS/n (mice that survived to 300 days) ([4]; 50 mg/kg): 7/10
MST Days ± SEM (n) ([4]; 50 mg/kg): 183 ± 67 (3) Days
Median survival time ([4]; 50 mg/kg): 245 days
GI50 (OVCAR-3 cancer cells): 20 ± 3.3 nM
GI50 [5]: > 10000 nM
GI50 [6]: 127 nM
Number of Mice surviving/Total (CDF1 mice [7]; i.v. days 1 through 5, 12.5 mg/kg): 10/10
Number of Mice surviving/Total (CDF1 mice [7]; i.v. days 1 through 5, 25 mg/kg): 9/10
Number of Mice surviving/Total (CDF1 mice [7]; i.v. days 1 through 5, 37.5 mg/kg): 0/10
Number of Mice surviving/Total (CDF1 mice [7]; i.v. days 1 through 5, 50 mg/kg): 0/10
GI50 [8]: 71 nM
relative acute toxicity of the liposomes (CDF1 female mice; CDF1 mice): less toxic than were the 2-bromo-C6 paclitaxel derivative-containing liposomes
number of mice that died within the first 14 days post-injection/total (CDF1 female mice; single dose 300 mg/kg): 1/5
number of mice that died within the first 14 days post-injection/total (CDF1 female mice; single dose 400 mg/kg): 1/5
number of mice that died within the first 14 days post-injection/total (CDF1 female mice; single dose 500 mg/kg): 0/5
efficacy compared with Taxol® at 25 mg/kg (A549 human lung cancer; all early treatment schedules (FIGS. 8a-c), BrC16HT at 12.5 or 25 mg/kg i.v.): more effective than Taxol® at 25 mg/kg
tumor regression compared with Taxol® (A549 human lung cancer; delayed schedule, days 20, 22, 24, 26 and 28, 25 mg/kg i.v. (FIG. 8d)): greater and more prolonged tumor regression
tumor growth vs. control (A549 human lung cancer; i.v., independent of the dose schedule, BrC16HT 12.5-25 mg/kg, Taxol® 25 mg/kg): significantly (p <0.05 vs. control) inhibited the tumor growth
survival time of tumor-bearing mice vs. control (A549 human NSCLC; i.p. on days 1, 3, 5, 7 & 9): significantly (p<0.05 vs. control) increased the survival time
% ILS (A549 human NSCLC; 25 mg/kg): 247%
LTS/n (A549 human NSCLC; 25 mg/kg): 0/6
MST Days + SEM (A549 human NSCLC; 25 mg/kg): 117 + 8 Days
Median survival time (A549 human NSCLC; 25 mg/kg): 112 days
% ILS (A549 human NSCLC; 50 mg/kg): 450%
LTS/n (A549 human NSCLC; 50 mg/kg): 0/6
MST Days + SEM (A549 human NSCLC; 50 mg/kg): 186 + 30 Days
Median survival time (A549 human NSCLC; 50 mg/kg): 171 days
Number of Mice surviving/Total (CDF1 mice [9]; i.p. days 1 through 5, 12.5 mg/kg): 10/10
Number of Mice surviving/Total (CDF1 mice [9]; i.p. days 1 through 5, 25 mg/kg): 19/19
Number of Mice surviving/Total (CDF1 mice [9]; i.p. days 1 through 5, 37.5 mg/kg): 10/10
Number of Mice surviving/Total (CDF1 mice [9]; i.p. days 1 through 5, 50 mg/kg): 14/20
Number of Mice surviving/Total (CDF1 mice [9]; i.p. days 1 through 5, 75 mg/kg): 0/5
Number of Mice surviving/Total (CDF1 mice [9]; i.p. days 1 through 5, 100 mg/kg): 0/2
